In patent publication US11434232B2, “ATR inhibitor and application thereof” (WUXI BIOCITY BIOPHARMACEUTICS CO., LTD., priority 2018, dated 2022):

Assays:
tumor cell line LoVo = assay: In vitro cell viability test (CellTiter-Glo), LoVo cell proliferation inhibition; format: cell-based; conditions: Homo sapiens
Description: In this experiment, inhibitory effect of the compounds on cell proliferation was investigated by testing influence on cell viability in vitro in tumor cell line LoVo.
CellTiter-Glo Luminescence Cell Viability Test
The following protocols were performed according to instruction of PromegaCellTiter-Glo Luminescence cell viability test Kit (Promega-G7573). • (1) Thawing CellTiter-Glo buffer and allowing it to acclimate to room temperature. • (2) Allowing CellTiter-Glo substrate to acclimate to room temperature. • (3) Adding CellTiter-Glo buffer to a bottle of CellTiter-Glo substrate to dissolve the substrate to prepare CellTiter-Glo working solution. • (4) Vortexing slowly to full dissolution. • (5) Removing the cell culture plate and balancing it to room temperature for 30 min. • (6) Adding 50 μL (equivalent to half volume of cell culture medium in each well) of CellTiter-Glo working solution to each well, wrapping the cell plate with aluminum foil to protect from light. • (7) Shaking the culture plate on an orbital shaker for 2 min to induce cell lysis. • (8) Placing the culture plate at room temperature for 10 min to stabilize the luminescence signal. • (9) Detecting the luminescence signal on SpectraMax i3× of Molecular Devices plate reader. Data Analysis
The following formula was used to calculate the inhibition rate of the test compound (Inhibition rate, IR): IR(%)=(1−(RLU Compound−RLU Blank control)/(RLU Vehicle control−RLU Blank control))*100%.
The inhibition rates of different concentrations of compounds were calculated in Excel, and GraphPad Prism software was used to make the inhibition curve and calculate relevant parameters, including the minimum inhibition rate, the maximum inhibition rate and IC50.

[1] = system: human colorectal cancer LoVo cell subcutaneous xenograft; assay: In vivo efficacy in colorectal cancer LoVo CDX model; design: species or system mouse; conditions: 25 mg/kg orally twice a day, day 17 of administration, vs vehicle control group
Excerpt: LoVo is a colorectal adenocarcinoma tumor cell line with MRE11A mutation (MRE11A is a key component of DNA double-strand break repairing ATM signaling pathway), which is sensitive to ATR inhibitor. In this experiment, the colorectal cancer LoVo CDX model was used to verify the inhibitory effect of ATR inhibitor as monotherapy on tumors with defect in ATM signaling pathway.
Human colorectal cancer LoVo cells (ECACC, CatLog: 87060101), in vitro monolayer culture, culture conditions: Ham's F-12 medium with 10% fetal bovine serum, 100 U/mL penicillin, 100 μg/mL streptomycin and 2 mM glutamine, 37° C., 5% CO2 culture. General passage with trypsin-EDTA digestion was performed twice a week. When the cell saturation was 80%-90%, the cells were collected, counted, and inoculated. 0.1 mL (10×10^6) of LoVo cells were subcutaneously inoculated into the right back of each nude mouse. When the mean tumor volume reached 173 mm^3, grouping and administration were initiated.
25.51 mg of WX15 was weighed and dissolved in 0.500 mL of DMSO, which were added with 2.000 mL of propylene glycol and 2.500 mL of deionized water, vortexed for homogeneous mixing, adjusted to PH=6.0, to obtain a clear solution. The preparing processes of Compound WX42, Compound WX45, Compound WX46 were referred to Compound WX15.
Dosage: All test compounds were administered orally at 25 mg/kg twice a day, with an interval of 8 h in a day.
A vernier caliper was used to measure the tumor diameter twice a week. The formula for calculating the tumor volume: V=0.5a×b^2, a and b represent the long and short diameters of the tumor, respectively. Antitumor efficacy of the compound was evaluated by TGI (%) or relative tumor proliferation rate T/C (%). Relative tumor proliferation rate T/C (%)=TRTV/CRTV×100% (TRTV: mean RTV value of treatment group; CRTV: mean RTV value of negative control group). The relative tumor volume (relative tumor volume, RTV) was calculated based on the tumor measurement results and the calculation formula was RTV=Vt/V0, where V0 is the tumor volume measured at grouping administration (i.e. D0), Vt is the tumor volume at a measurement, and data on the same day was used for TRTV and CRTV.
TGI (%) reflects the tumor growth inhibition rate. TGI (%)=[1−(mean tumor volume at the end of administration in a treatment group−mean tumor volume at the beginning of administration in this treatment group)/(mean tumor volume at the end of treatment in the solvent control group−mean tumor volume at the beginning of treatment in the solvent control group)]×100%.

[2] = Pharmacokinetic properties in vivo in female Balb/c Nude mice; design: species or system mouse; conditions: for AUC(0-t) / clearance / half-life / C0 / Vd / Cmax: mouse, plasma; for C0: drug concentration at 0 min; for Vd: read-out: Vdss; for F: oral bioavailability, 10 mg/kg oral vs 1 mg/kg IV
Description: Experimental method: The purpose of this study was to determine the pharmacokinetic parameters of the compounds and calculate the oral bioavailability in female Balb/c Nude mice.
The project involved 6 female Balb/c Nude mice. 3 mice were administered intravenously at a dose of 1 mg/kg, and plasma samples were collected at 0 h (before administration) and 0.0833, 0.25, 0.5, 1, 2, 4, 6, 8 and 24 h after administration, other 3 mice were given by oral gavage at a dose of 10 mg/kg or 25 mg/kg, and plasma samples were collected at 0 h (before dosing) and 0.5, 1, 2, 3, 4, 6, 8, 24 h after administration. Then LC/MS/MS analysis was performed for the collected samples and data was collected. The collected analysis data was calculated for relevant pharmacokinetic parameters with Phoenix WinNonlin 6.2.1 software.

human ATR kinase = human ATR kinase (Homo sapiens (Human), UniProt Q13535); assay: In vitro evaluation of inhibitory activity on human ATR kinase (HTRF, ATR/ATRIP(h), GST-cMyc-p53 substrate); format: biochemical; conditions: 50 nM GST-cMyc-p53, 30 min room temperature
Chain of human ATR kinase (Q13535 whole entry): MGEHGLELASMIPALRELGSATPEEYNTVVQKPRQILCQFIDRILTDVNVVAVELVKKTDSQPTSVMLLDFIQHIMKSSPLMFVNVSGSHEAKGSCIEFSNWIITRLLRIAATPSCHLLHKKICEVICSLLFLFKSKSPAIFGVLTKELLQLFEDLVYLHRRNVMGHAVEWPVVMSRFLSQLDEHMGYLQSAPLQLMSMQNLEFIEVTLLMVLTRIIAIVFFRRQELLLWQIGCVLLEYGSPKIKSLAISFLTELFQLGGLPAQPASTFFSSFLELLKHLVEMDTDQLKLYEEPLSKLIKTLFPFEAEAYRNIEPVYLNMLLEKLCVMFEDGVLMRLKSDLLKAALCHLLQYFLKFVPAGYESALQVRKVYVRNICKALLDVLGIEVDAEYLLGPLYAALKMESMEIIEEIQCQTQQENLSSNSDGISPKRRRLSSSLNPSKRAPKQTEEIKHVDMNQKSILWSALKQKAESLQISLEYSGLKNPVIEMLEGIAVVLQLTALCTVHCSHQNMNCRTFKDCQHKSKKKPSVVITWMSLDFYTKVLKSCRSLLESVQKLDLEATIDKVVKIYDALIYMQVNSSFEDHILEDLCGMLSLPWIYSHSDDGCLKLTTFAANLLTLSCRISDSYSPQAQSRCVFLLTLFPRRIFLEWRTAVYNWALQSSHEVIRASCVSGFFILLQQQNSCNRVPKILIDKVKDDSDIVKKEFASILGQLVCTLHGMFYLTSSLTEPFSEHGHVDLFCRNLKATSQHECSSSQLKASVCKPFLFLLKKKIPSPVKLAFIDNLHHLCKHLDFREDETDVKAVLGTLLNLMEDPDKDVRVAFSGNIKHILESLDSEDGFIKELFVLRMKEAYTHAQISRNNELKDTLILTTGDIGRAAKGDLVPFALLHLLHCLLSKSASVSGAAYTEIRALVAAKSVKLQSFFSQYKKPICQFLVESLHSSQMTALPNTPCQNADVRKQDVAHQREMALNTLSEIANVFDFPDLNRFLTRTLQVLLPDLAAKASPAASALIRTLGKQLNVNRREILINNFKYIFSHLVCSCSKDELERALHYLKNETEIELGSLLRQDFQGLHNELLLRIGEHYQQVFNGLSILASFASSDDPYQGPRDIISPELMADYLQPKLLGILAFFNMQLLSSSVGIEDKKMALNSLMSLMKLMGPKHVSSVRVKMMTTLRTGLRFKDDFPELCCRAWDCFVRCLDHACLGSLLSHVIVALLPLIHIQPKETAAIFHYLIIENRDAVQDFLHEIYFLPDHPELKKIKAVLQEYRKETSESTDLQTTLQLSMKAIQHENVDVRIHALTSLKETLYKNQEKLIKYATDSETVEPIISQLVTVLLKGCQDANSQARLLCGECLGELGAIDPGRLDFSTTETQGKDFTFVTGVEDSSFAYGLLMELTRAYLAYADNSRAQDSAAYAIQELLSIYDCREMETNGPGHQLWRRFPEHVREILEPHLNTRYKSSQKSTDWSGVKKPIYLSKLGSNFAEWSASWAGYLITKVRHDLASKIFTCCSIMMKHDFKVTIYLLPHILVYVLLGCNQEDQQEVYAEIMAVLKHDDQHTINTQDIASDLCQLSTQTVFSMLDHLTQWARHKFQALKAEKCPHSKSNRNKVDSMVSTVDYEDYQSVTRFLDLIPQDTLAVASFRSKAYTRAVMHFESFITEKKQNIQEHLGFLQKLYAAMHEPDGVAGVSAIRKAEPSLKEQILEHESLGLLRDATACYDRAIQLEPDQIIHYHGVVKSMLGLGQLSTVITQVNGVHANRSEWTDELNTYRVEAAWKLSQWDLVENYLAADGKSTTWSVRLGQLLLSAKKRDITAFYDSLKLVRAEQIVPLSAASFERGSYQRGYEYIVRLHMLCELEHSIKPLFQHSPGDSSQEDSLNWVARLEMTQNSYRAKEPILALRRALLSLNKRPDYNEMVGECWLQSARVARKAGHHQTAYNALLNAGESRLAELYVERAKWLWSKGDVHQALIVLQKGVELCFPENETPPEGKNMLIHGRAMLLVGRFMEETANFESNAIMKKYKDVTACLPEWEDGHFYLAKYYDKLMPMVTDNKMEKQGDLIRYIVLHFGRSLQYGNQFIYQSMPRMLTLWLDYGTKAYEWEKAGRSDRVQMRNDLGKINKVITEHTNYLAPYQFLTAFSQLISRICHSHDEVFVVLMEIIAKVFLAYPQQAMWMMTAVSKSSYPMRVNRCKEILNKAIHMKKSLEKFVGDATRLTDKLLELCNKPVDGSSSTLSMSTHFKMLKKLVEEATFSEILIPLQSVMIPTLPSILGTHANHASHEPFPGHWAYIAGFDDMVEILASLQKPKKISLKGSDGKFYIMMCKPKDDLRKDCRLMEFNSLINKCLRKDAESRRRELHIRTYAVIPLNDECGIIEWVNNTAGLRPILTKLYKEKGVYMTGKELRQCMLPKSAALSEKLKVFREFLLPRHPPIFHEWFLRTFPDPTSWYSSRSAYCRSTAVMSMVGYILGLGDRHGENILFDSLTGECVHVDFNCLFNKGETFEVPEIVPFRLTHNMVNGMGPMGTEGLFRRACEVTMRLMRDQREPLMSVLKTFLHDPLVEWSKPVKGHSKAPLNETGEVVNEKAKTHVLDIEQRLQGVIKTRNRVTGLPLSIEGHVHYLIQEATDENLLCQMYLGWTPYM
Chain of human ATR kinase (Q8WXE1 whole entry partner): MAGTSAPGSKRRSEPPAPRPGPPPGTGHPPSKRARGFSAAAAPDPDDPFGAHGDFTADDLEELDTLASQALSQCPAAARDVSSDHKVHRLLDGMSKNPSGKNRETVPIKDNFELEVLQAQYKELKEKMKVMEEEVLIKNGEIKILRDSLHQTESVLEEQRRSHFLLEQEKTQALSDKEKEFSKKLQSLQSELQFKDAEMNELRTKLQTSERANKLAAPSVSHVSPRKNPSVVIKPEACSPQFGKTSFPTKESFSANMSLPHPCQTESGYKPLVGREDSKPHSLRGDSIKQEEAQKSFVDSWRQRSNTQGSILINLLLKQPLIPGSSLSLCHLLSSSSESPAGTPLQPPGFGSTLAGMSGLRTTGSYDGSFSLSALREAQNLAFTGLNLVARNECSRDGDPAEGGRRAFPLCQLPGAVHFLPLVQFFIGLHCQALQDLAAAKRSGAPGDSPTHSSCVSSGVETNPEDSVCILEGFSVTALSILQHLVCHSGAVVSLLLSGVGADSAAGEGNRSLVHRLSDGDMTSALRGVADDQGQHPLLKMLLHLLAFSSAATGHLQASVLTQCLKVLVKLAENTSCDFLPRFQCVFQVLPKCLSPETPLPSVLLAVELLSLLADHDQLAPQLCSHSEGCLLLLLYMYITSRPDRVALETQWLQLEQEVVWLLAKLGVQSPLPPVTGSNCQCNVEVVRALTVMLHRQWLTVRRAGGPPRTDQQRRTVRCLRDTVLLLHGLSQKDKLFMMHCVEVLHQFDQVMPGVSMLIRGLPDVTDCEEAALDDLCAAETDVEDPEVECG
Description: IC50 values were determined to evaluate the inhibitory activity of the tested compounds on human ATR kinase.
ATR/ATRIP(h) was incubated in assay buffer containing 50 nM GST-cMyc-p53 and Mg/ATP (according to concentration required). The reaction was initiated by adding Mg/ATP mixture. After incubating for 30 min at room temperature, a stop solution containing EDTA to was added to terminate the reaction. Finally, detecting buffer containing d^2-labeled anti-GST monoclonal antibody and europium-labeled anti-phospho Ser15 antibody against phosphorylated p^53 were added. Then the plate was read in time-resolved fluorescence mode and homogeneous time resolution was performed.
The fluorescence (HTRF) signal was determined according to the formula HTRF=10000×(Em665 nm/Em620 nm).
IC50 data was analyzed using XLFit version 5.3 (ID Business Solutions). Non-linear regression analysis was used to fit the sigmoidal dose response (variable slope) curve.

C[C@@H]1COCCN1c1cc(C2([S@](C)(=N)=O)CC2)nc(-c2ccnc3[nH]ccc23)n1 [AZD6738, reference compound]
IC50 (tumor cell line LoVo): 820 nM

C[C@@H]1COCCN1c1cc(-c2ccnn2C)nc(-c2ccnc3[nH]ccc23)n1 [WX15]
IC50 (tumor cell line LoVo): 410 nM | T/C (relative tumor proliferation rate) [1]: 46.7% | TGI (tumor growth inhibition rate) [1]: 66.8% | AUC(0-t) ([2]; 1 mg/kg IV): 0.905 µM·h | clearance ([2]; 1 mg/kg IV): 47 mL/min/kg | half-life ([2]; 1 mg/kg IV): 0.78 h | C0 ([2]; 1 mg/kg IV): 1960 nM | Vd ([2]; 1 mg/kg IV): 2.21 L/kg | AUC(0-t) ([2]; 10 mg/kg oral gavage): 8.75 µM·h | Cmax ([2]; 10 mg/kg oral gavage): 4560 nM | half-life ([2]; 10 mg/kg oral gavage): 1.23 h | F [2]: 96.0% | IC50 (human ATR kinase): 159 nM

C[C@@H]1COCCN1c1cc(-c2ccnn2C)cc(-c2ccnc3[nH]ccc23)n1 [WX33]
IC50 (human ATR kinase): 198 nM

Cc1nnn(C)c1-c1cc(N2CCOC[C@H]2C)nc(-c2ccnc3[nH]ccc23)n1 [WX34]
AUC(0-t) ([2]; 1 mg/kg IV): 0.787 µM·h | clearance ([2]; 1 mg/kg IV): 53.9 mL/min/kg | half-life ([2]; 1 mg/kg IV): 1.22 h | C0 ([2]; 1 mg/kg IV): 1260 nM | Vd ([2]; 1 mg/kg IV): 3.72 L/kg | AUC(0-t) ([2]; 10 mg/kg oral gavage): 5.68 µM·h | Cmax ([2]; 10 mg/kg oral gavage): 2860 nM | half-life ([2]; 10 mg/kg oral gavage): 1.16 h | F [2]: 71.7% | IC50 (human ATR kinase): 69 nM

Cc1nnn(C)c1-c1cc(N2CCOC[C@H]2C)nc(-c2cccc3[nH]ccc23)n1 [WX35]
IC50 (human ATR kinase): 19 nM

Cc1nnn(C)c1-c1cc(N2CCOC[C@H]2C)nc(-c2cc(F)cc3[nH]ccc23)n1 [WX36]
IC50 (human ATR kinase): 14 nM

Cc1nnn(C)c1-c1cc(N2CCOC[C@H]2C)nc(-c2cc(CO)cc3[nH]ccc23)n1 [WX37]
IC50 (human ATR kinase): 16 nM

Cc1nnn(C)c1-c1cc(-c2cc(CO)cc3[nH]ccc23)nc(N2CCOC[C@H]2C)c1 [WX38]
IC50 (human ATR kinase): 78 nM

Cc1nnn(C)c1-c1cc(-c2ccnc3[nH]ccc23)nc(N2CCOC[C@H]2C)c1 [WX39]
IC50 (human ATR kinase): 42 nM

COc1cc(C)c(-c2cc(N3CCOC[C@H]3C)nc(-c3ccnc4[nH]ccc34)n2)cn1 [WX40]
IC50 (human ATR kinase): 15 nM

Cc1nc(F)ccc1-c1cc(N2CCOC[C@H]2C)nc(-c2ccnc3[nH]ccc23)n1 [WX41]
IC50 (human ATR kinase): 78 nM

Cc1cnn(C)c1-c1cc(N2CCOC[C@H]2C)nc(-c2cc(CO)cc3[nH]ccc23)n1 [WX42]
IC50 (tumor cell line LoVo): 510 nM | T/C (relative tumor proliferation rate) [1]: 27.8% | TGI (tumor growth inhibition rate) [1]: 90.7% | AUC(0-t) ([2]; 1 mg/kg IV): 1.09 µM·h | clearance ([2]; 1 mg/kg IV): 34.3 mL/min/kg | half-life ([2]; 1 mg/kg IV): 2.57 h | C0 ([2]; 1 mg/kg IV): 1960 nM | Vd ([2]; 1 mg/kg IV): 2.21 L/kg | AUC(0-t) ([2]; 10 mg/kg oral gavage): 15 µM·h | Cmax ([2]; 10 mg/kg oral gavage): 6500 nM | half-life ([2]; 10 mg/kg oral gavage): 2.02 h | F [2]: 129.0% | IC50 (human ATR kinase): 29 nM

COCc1cnn(C)c1-c1cc(N2CCOC[C@H]2C)nc(-c2ccnc3[nH]ccc23)n1 [WX43]
IC50 (human ATR kinase): 65 nM

Cc1ncn(C)c1-c1cc(N2CCOC[C@H]2C)nc(-c2ccnc3[nH]ccc23)n1 [WX44]
IC50 (human ATR kinase): 65 nM

Cc1nnc(C)n1-c1cc(N2CCOC[C@H]2C)nc(-c2cccc3[nH]ccc23)n1 [WX45]
IC50 (tumor cell line LoVo): 750 nM | T/C (relative tumor proliferation rate) [1]: 32.3% | TGI (tumor growth inhibition rate) [1]: 79.9% | AUC(0-t) ([2]; 1 mg/kg IV): 0.88 µM·h | clearance ([2]; 1 mg/kg IV): 48.3 mL/min/kg | half-life ([2]; 1 mg/kg IV): 0.99 h | C0 ([2]; 1 mg/kg IV): 1580 nM | Vd ([2]; 1 mg/kg IV): 2.59 L/kg | AUC(0-t) ([2]; 10 mg/kg oral gavage): 10.9 µM·h | Cmax ([2]; 10 mg/kg oral gavage): 7720 nM | half-life ([2]; 10 mg/kg oral gavage): 1.69 h | F [2]: 123.0% | IC50 (human ATR kinase): 69 nM

Cc1nnc(C)n1-c1cc(N2CCOC[C@H]2C)nc(-c2cc(F)cc3[nH]ccc23)n1 [WX46]
IC50 (tumor cell line LoVo): 350 nM | T/C (relative tumor proliferation rate) [1]: 43.8% | TGI (tumor growth inhibition rate) [1]: 79.9% | AUC(0-t) ([2]; 25 mg/kg oral gavage): 26.2 µM·h | Cmax ([2]; 25 mg/kg oral gavage): 10600 nM | half-life ([2]; 25 mg/kg oral gavage): 0.892 h | IC50 (human ATR kinase): 31 nM

Cc1nnn(C2CC2)c1-c1cc(N2CCOC[C@H]2C)nc(-c2ccnc3[nH]ccc23)n1 [WX47]
IC50 (tumor cell line LoVo): 760 nM | IC50 (human ATR kinase): 64 nM

Cc1nnc(C)n1-c1cc(-c2ccnc3[nH]ccc23)nc(N2CCOC[C@H]2C)c1 [WX48]
IC50 (human ATR kinase): 105 nM

Cc1nnn(C2CC2)c1-c1cc(N2CCOC[C@H]2C)nc(-c2cc(CO)cc3[nH]ccc23)n1 [WX49]
IC50 (human ATR kinase): 26 nM

Cc1noc(C)c1-c1cc(N2CCOC[C@H]2C)nc(-c2cc(CO)cc3[nH]ccc23)n1 [WX51]
IC50 (human ATR kinase): 32 nM

Cc1cc(-c2nc(-c3c(C)nnn3C)cc(N3CCOC[C@H]3C)n2)c2cc[nH]c2c1 [WX52]
IC50 (human ATR kinase): 20 nM

Cc1cnn(C)c1-c1cc(N2CCOC[C@H]2C)nc(-c2cc(C(=O)O)cc3[nH]ccc23)n1 [WX53]
IC50 (human ATR kinase): 83 nM

Cc1nnc(C)n1-c1cc(-c2cc(F)cc3[nH]ccc23)nc(N2CCOC[C@H]2C)c1 [WX54]
IC50 (human ATR kinase): 27 nM

Cc1nnc(C)n1-c1cc(-c2cccc3[nH]ccc23)nc(N2CCOC[C@H]2C)n1 [WX55]
IC50 (human ATR kinase): 20 nM

Cc1nnc(C)n1-c1cc(-c2cc(F)cc3[nH]ccc23)nc(N2CCOC[C@H]2C)n1 [WX56]
IC50 (human ATR kinase): 46 nM

Cc1nnc(C)n1-c1cc(-c2cccc3[nH]ccc23)nc(N2CCOC[C@H]2C)c1 [WX57]
IC50 (human ATR kinase): 28 nM
